This note sets out measurements from patent publication US20230413824A1, “AGROCHEMICAL COMPOSITION COMPRISING 3-SUBSTITUTED PHENYLAMIDINE COMPOUNDS AND USE THEREOF” (PI INDUSTRIES LIMITED, priority 2020, published 2023).

Format in all cases: in vivo
In one assay the test system is Erysiphe cichoracearum. Briefly: Erysiphe cichoracearum test in cucumber (preventive, glasshouse). Conditions: single compound.
The test system of a further assay is Alternaria solani. Description: Alternaria solani test in tomato (preventive, glasshouse).
The subject of a further assay is Septoria nodorum. Briefly: Parastagonospora nodorum/Septoria nodorum/Stagnospora nodorum test in wheat (preventive, glasshouse). Particulars: single compound. Here is the method: The single compounds or compound combinations were dissolved in 2% DMSO/Acetone and then mixed with water containing emulsifier to a calibrated spray volume of 50 mL. The spray solutions were poured into spray bottles for further applications.
To test the preventive activity of compounds, healthy young wheat plants, raised in the greenhouse, were sprayed with the single compound or mixture preparation at the stated application rates inside the spray cabinets using hollow cone nozzles. One day after treatment, the plants were inoculated with a suspension containing 2.8×10^6 Stagnospora nodorum inoculum. The inoculated plants were then kept in a greenhouse chamber at 22-25° C. temperature and 90-100% relative humidity for disease expression.
A visual assessment of the performance of the compounds and respective compound combinations was carried out by rating the disease severity (0-100% scale) on treated plants 3, 7 and 10 days after application. Efficacy (% control) of the compounds was calculated by comparing the disease rating in the treatment with the one of the untreated control. The compounds were also assessed for their plant compatibility by recording symptoms like necrosis, chlorosis & stunting. The results are shown for the compound of formula (I-1) to (I-5) in Table E1-E5.

In the next assay the test system is Pyricularia oryzae. Briefly: whole plant or invertebrate. Particulars: for Observed Efficacy: single compound, preventive spray, rice.
For a further assay, the system named is Botrytis cinerea. Briefly: Botrytis cinerea test in tomato (preventive, glasshouse). Particulars: single compound.
Another assay relates to Phakopsora pachyrhizi. Briefly: Phakopsora pachyrhizi test in soybean (preventive, glasshouse). Conditions: single compound.
[1] abbreviates: 0.1 ppm, preventive spray on cucumber.
Setting [2] is: Table B3, single compound, Conc. 0.05 ppm, preventive.
Setting [3] is: Table B3, single compound, Conc. 0.1 ppm, preventive.
Setting [4] is: single compound, 0.05 ppm, preventive.
Setting [5] is: single compound, 0.05 ppm, preventive spray.
Setting [6] is: single compound, 0.1 ppm, preventive.
Setting [7] is: single compound, 0.1 ppm, preventive spray.
[8] abbreviates: Table F4, Conc. 0.05 ppm, Botrytis cinerea in tomato, preventive.
[9] abbreviates: Table F4, Conc. 0.1 ppm, Botrytis cinerea in tomato, preventive.
The mark [10] stands for this setting: Conc. 0.1 ppm, preventive spray on tomato, % control vs untreated.
The mark [11] stands for this setting: 0.05 ppm, preventive spray on soybean.
Where [12] appears, read: 0.1 ppm, preventive spray on soybean.
Setting [13] is: Conc. 0.05 ppm, soybean, preventive, Table D4.
[14] abbreviates: Conc. 0.05 ppm, soybean, preventive, Table D5.
Setting [15] is: Conc. 0.1 ppm, soybean, preventive, Table D4.
Where [16] appears, read: Conc. 0.1 ppm, soybean, preventive, Table D5.
Where [17] appears, read: single compound, Conc. 0.05 ppm, preventive spray.
Where [18] appears, read: Pyricularia oryzae, read-out: Observed Efficacy.

As for `Cn1cc(C(=O)Nc2cccc3c2[C@@H]2CC[C@H]3C2=C(Cl)Cl)c(C(F)F)n1` (racemic) [Benzovindiflupyr, benzovindiflupyr], the “Observed Efficacy (%)” value with Erysiphe cichoracearum (0.05 ppm, cucumber, preventive) was 24%; in the assay on Erysiphe cichoracearum (0.05 ppm, preventive spray on cucumber), 24%; in the assay on Erysiphe cichoracearum (0.1 ppm, cucumber, preventive), 29%; in the assay on Erysiphe cichoracearum (setting [1]), 29%; in the assay on Alternaria solani (setting [2]), 14%; in the assay on Alternaria solani (setting [3]), 29%. Also, the “Observed Efficacy (%)” value in the assay with Alternaria solani (Table B4, single compound, Conc. 0.05 ppm, preventive) was 14%; with Alternaria solani (Table B4, single compound, Conc. 0.1 ppm, preventive) it was 29%; in the assay on Alternaria solani (setting [4]) it was 14%; in the assay on Alternaria solani (setting [5]), 14%; in the assay on Alternaria solani (setting [6]) it was 29%; with Alternaria solani (setting [7]), 29%. For the same compound, the “Observed Efficacy (%)” value in the assay on Septoria nodorum (0.05 ppm) came out at 29%; in the assay on Botrytis cinerea (setting [8]), 33%; in the assay with Botrytis cinerea (setting [9]) it was 42%; in the assay with Botrytis cinerea (Table F5, Conc. 0.1 ppm, Botrytis cinerea in tomato, preventive), 42%; in the assay with Botrytis cinerea (Conc. 0.05 ppm, preventive spray on tomato, % control vs untreated), 33%; with Botrytis cinerea (setting [10]), 42%. The “Observed Efficacy (%)” value was determined as 27% in the assay with Phakopsora pachyrhizi (setting [11]); 38% in the assay on Phakopsora pachyrhizi (setting [12]); 27% in the assay on Phakopsora pachyrhizi (setting [13]); 27% in the assay on Phakopsora pachyrhizi (setting [14]); 38% in the assay with Phakopsora pachyrhizi (setting [15]); 38% with Phakopsora pachyrhizi (setting [16]). Besides, in the assay on Pyricularia oryzae (Conc. 0.05 ppm), the “Observed Efficacy” value is 17%.
As to `CO/C=C(/C(=O)OC)c1ccccc1Oc1cc(Oc2ccccc2C#N)ncn1` [Azoxystrobin, azoxystrobin], the “Observed Efficacy (%)” value is listed as 50% in the assay with Erysiphe cichoracearum (0.1 ppm, cucumber, preventive); 50% with Erysiphe cichoracearum (setting [1]); 33% in the assay on Alternaria solani (setting [2]); 49% with Alternaria solani (setting [3]); 33% in the assay on Alternaria solani (setting [4]); 33% with Alternaria solani (setting [5]). The “Observed Efficacy (%)” value with Alternaria solani (setting [6]) was found to be 49%; with Alternaria solani (setting [7]), 49%; in the assay with Septoria nodorum (0.05 ppm) it was 42%; in the assay with Septoria nodorum (0.1 ppm) it was 47%; with Botrytis cinerea (setting [10]), 45%; in the assay on Phakopsora pachyrhizi (setting [11]) it was 15%. The “Observed Efficacy (%)” value is on record as 22% in the assay on Phakopsora pachyrhizi (setting [12]); 15% in the assay on Phakopsora pachyrhizi (setting [13]); 15% in the assay on Phakopsora pachyrhizi (setting [14]); 22% in the assay on Phakopsora pachyrhizi (setting [15]); 22% in the assay with Phakopsora pachyrhizi (setting [16]). For the same compound, the “Observed Efficacy” value stood at 33% with Alternaria solani (setting [17]); 49% in the assay with Alternaria solani (single compound, Conc. 0.1 ppm, preventive spray); 21% in the assay with Pyricularia oryzae (Conc. 0.05 ppm); 26% in the assay with Pyricularia oryzae (Conc. 0.1 ppm).
For `CCN(C)C=Nc1cc(Cl)cc(Cc2cccc(C)c2)c1C` [Compound (I-1), N′-(5-chloro-2-methyl-3-(3-methylbenzyl)phenyl)-N-ethyl-N-methylformimidamide], the pest or weed control at 1 ppm in the assay with Erysiphe cichoracearum (Golovinomyces cichoracearum, 1 ppm, cucumber, preventive, read-out: Observed Efficacy (%)) was 13%; in the assay on Alternaria solani (Alternaria solani, single compound, Conc. 1 ppm, preventive spray, read-out: Observed Efficacy), 20%; in the assay on Septoria nodorum (Parastagonospora nodorum, 1 ppm, read-out: Observed Efficacy (%)), 17%; in the assay on Pyricularia oryzae (setting [18]), 17%; with Botrytis cinerea (Botrytis cinerea, Conc. 1 ppm, preventive spray on tomato, % control vs untreated, read-out: Observed Efficacy (%)), 20%. Moreover, the pest or weed control at 5 ppm in the assay on Erysiphe cichoracearum (Golovinomyces cichoracearum, 5 ppm, cucumber, preventive, read-out: Observed Efficacy (%)) was determined as 33%; in the assay with Alternaria solani (Alternaria solani, single compound, Conc. 5 ppm, preventive spray, read-out: Observed Efficacy), 27%; with Septoria nodorum (Parastagonospora nodorum, 5 ppm, read-out: Observed Efficacy (%)), 20%; in the assay with Pyricularia oryzae (setting [18]), 27%; in the assay on Botrytis cinerea (Botrytis cinerea, Conc. 5 ppm, preventive spray on tomato, % control vs untreated, read-out: Observed Efficacy (%)), 27%. The pest or weed control at 20 ppm in the assay with Erysiphe cichoracearum (Golovinomyces cichoracearum, 20 ppm, cucumber, preventive, read-out: Observed Efficacy (%)) was found to be 57%; in the assay with Alternaria solani (Alternaria solani, single compound, Conc. 20 ppm, preventive spray, read-out: Observed Efficacy), 40%; in the assay with Septoria nodorum (Parastagonospora nodorum, 20 ppm, read-out: Observed Efficacy (%)), 43%; in the assay on Pyricularia oryzae (setting [18]), 37%; with Botrytis cinerea (Botrytis cinerea, Conc. 20 ppm, preventive spray on tomato, % control vs untreated, read-out: Observed Efficacy (%)), 47%. For the same compound, the pest or weed control at 0.0001 ppm with Phakopsora pachyrhizi (Phakopsora pachyrhizi, 0.0001 ppm, preventive spray on soybean, read-out: Observed Efficacy (%)) came out at 40%. Further, the pest or weed control at 0.001 ppm with Phakopsora pachyrhizi (Phakopsora pachyrhizi, 0.001 ppm, preventive spray on soybean, read-out: Observed Efficacy (%)) was determined as 50%. Moreover, the pest or weed control at 0.01 ppm in the assay with Phakopsora pachyrhizi (Phakopsora pachyrhizi, 0.01 ppm, preventive spray on soybean, read-out: Observed Efficacy (%)) came to 62%.
Turning to `Cn1cc(C(=O)Nc2ccccc2-c2cc(F)c(F)c(F)c2)c(C(F)F)n1` [Fluxapyroxad, fluxapyroxad], the “Observed Efficacy (%)” value with Alternaria solani (setting [2]) was 40%; in the assay with Alternaria solani (setting [3]), 56%; in the assay with Alternaria solani (setting [5]) it was 40%; with Alternaria solani (setting [7]) it was 56%; in the assay with Septoria nodorum (0.05 ppm), 3%; in the assay on Septoria nodorum (0.1 ppm) it was 5%. The figures for the “Observed Efficacy (%)” value in the assay with Botrytis cinerea (setting [10]), in the assay with Phakopsora pachyrhizi (setting [14]) and in the assay with Phakopsora pachyrhizi (setting [16]) were 38%, 46% and 59%, respectively. Besides, the entries for the “Observed Efficacy” value in the assay with Alternaria solani (setting [17]), in the assay with Pyricularia oryzae (Conc. 0.05 ppm) and with Pyricularia oryzae (Conc. 0.1 ppm) were 40%, 24% and 32%, respectively.
For the compound `CON=C(C(=O)OC)c1ccccc1CON=C(C)c1cccc(C(F)(F)F)c1` [Trifloxystrobin, trifloxystrobin], the pest or weed control at 0.05 ppm with Alternaria solani (Alternaria solani, single compound, 0.05 ppm, preventive spray, read-out: Observed Efficacy (%)) is 33%; in the assay with Septoria nodorum (Parastagonospora nodorum, 0.05 ppm, read-out: Observed Efficacy (%)) it was 5%; with Pyricularia oryzae (setting [18]), 24%; with Botrytis cinerea (Botrytis cinerea, Conc. 0.05 ppm, preventive spray on tomato, % control vs untreated, read-out: Observed Efficacy (%)), 26%; in the assay with Phakopsora pachyrhizi (Phakopsora pachyrhizi, Conc. 0.05 ppm, soybean, preventive, Table D4, read-out: Observed Efficacy (%)), 22%. Further, the pest or weed control at 0.1 ppm is 40% with Alternaria solani (Alternaria solani, single compound, 0.1 ppm, preventive spray, read-out: Observed Efficacy (%)); 18% in the assay with Septoria nodorum (Parastagonospora nodorum, 0.1 ppm, read-out: Observed Efficacy (%)); 32% in the assay on Pyricularia oryzae (setting [18]); 33% in the assay with Botrytis cinerea (Botrytis cinerea, Conc. 0.1 ppm, preventive spray on tomato, % control vs untreated, read-out: Observed Efficacy (%)); 32% in the assay with Phakopsora pachyrhizi (Phakopsora pachyrhizi, 0.1 ppm, preventive spray on soybean, read-out: Observed Efficacy (%)). The “Observed Efficacy (%)” value in the assay on Alternaria solani (setting [3]) was 40%; in the assay with Botrytis cinerea (setting [8]), 26%; with Botrytis cinerea (setting [9]), 33%; in the assay with Phakopsora pachyrhizi (setting [15]), 32%; in the assay on Phakopsora pachyrhizi (setting [16]) it was 32%.
